Source: patent US9290476B2, “Methylene linked quinolinyl modulators of RORγt” (Janssen Pharmaceutica NV, priority 2012, dated 2016)
“And” between values parts separate entries of the source, which are not always exact repeats. Identical values can stand only once. Counter-ions that a name gives are not always drawn. Like-named read-outs stand apart in the source and are kept apart here.

Columns and labels:
[1] = molecular target: human RORγt ligand binding domain (RORγt LBD) (Homo sapiens (Human), UniProt P51449); assay: RORγt ThermoFluor assay (thermal shift binding affinity); details: estimated from thermal shift
human RORγt ligand binding domain (RORγt LBD), sequence (P51449 other isoform, or with tags, fused parts or gaps): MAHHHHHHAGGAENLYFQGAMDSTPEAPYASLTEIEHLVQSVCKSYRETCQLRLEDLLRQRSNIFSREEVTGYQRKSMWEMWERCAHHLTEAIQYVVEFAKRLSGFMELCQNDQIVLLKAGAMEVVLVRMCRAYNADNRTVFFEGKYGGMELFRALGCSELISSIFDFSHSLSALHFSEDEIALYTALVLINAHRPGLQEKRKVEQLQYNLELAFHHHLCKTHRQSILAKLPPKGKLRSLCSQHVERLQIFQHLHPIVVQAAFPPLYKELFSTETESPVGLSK
In short: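 Thermal shift used 0.065 mg/mL RORγt LBD with 60 μM 1,8-ANS in 100 mM Hepes pH 7.0, 10 mM NaCl, 2.5 mM GSH and 0.002% Tween-20, heated at 1 °C/min. Fluorescence was excited at 380–400 nm and emission read at 500 nm.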

[2] = molecular target: human RORγt LBD (Homo sapiens (Human), UniProt P51449); assay: RORγt reporter assay (GAL4-RORγt LBD luciferase in HEK293T cells); type: cell-based; details: for IC50 / RORγt reporter Assay, % inhibition @ 6 μM: HEK293T cells; for IC50: 24 hours compound treatment; for inhibition at 6 µM: HEK-293T, read-out: RORγt reporter Assay, % inhibition @ 6 μM, HEK293T cells, 6 μM
human RORγt LBD, sequence (P51449 258-518): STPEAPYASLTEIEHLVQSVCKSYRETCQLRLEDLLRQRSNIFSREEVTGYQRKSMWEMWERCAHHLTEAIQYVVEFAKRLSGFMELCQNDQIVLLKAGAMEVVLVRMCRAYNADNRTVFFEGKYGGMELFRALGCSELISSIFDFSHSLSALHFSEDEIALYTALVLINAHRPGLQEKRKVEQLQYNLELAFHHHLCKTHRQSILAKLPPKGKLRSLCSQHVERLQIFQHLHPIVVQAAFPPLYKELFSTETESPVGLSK
In short: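 HEK293T cells transiently co-transfected with GAL4-DBD–wild-type human RORγt LBD (pBIND) and GAL4-responsive firefly luciferase reporter (pGL4.31); renilla luciferase from pBIND normalises transfection/viability. Cells in phenol-red-free DMEM, 5% lipid-reduced FCS, treated with compound 24 h. Firefly/renilla ratio plotted against compound concentration.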

[3] = tested on: IL-17 production by CD4 T cells; assay: Human Th17 assay (IL-17 production by CD4 T cells under Th17 differentiation); type: cell-based; details: human CD4+ T cells, IL-17 after 3 days, read-out: Human Th17 Assay, IC50 μM
In short: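 Healthy-donor peripheral CD4+ T cells (1.5×10^5/well) preincubated 1 h with titrated compound (0.2% DMSO), then differentiated with anti-CD3/CD28 beads, anti-IL4, anti-IFNγ, IL1β, IL23, IL6, TGFβ and IL2 for 3 days at 37 °C. Supernatant IL-17 quantified by MSD electrochemiluminescence against a standard curve; IC50 fitted.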

| Compound | Kd [1] [nM] | IC50 [2] | inhibition at 6 µM [2] [%] | IC50 ([3]; Homo sapiens, CD4+ T, 72 h) [µM] | IC50 [3] [µM] | RORγt reporter Assay, % inhibition @ 6 μM [2] [%] |
| --- | --- | --- | --- | --- | --- | --- |
| COc1nc2ccc(C(O)(c3ccc(Cl)cc3)c3cncn3C)cc2c(Cl)c1Cc1cc2ccccc2s1 (stereo not shown) [Example 36A, (3-(Benzo[b]thiophen-2-ylmethyl)-4-chloro-2-methoxyquinolin-6-yl)(4-chlorophenyl)(1-methyl-1H-imidazol-5-yl)methanol] | 40 | 0.18 µM | 98 | 0.1 | – | – |
| CCN(C)c1nc2ccc(C(O)(c3ccc(Cl)cc3)c3cncn3C)cc2c(Cl)c1Cc1ccc(-n2cccn2)cc1 (stereo not shown) [Example 17, (3-(4-(1H-Pyrazol-1-yl)benzyl)-4-chloro-2-(ethyl(methyl)amino)quinolin-6-yl)(4-chlorophenyl)(1-methyl-1H-imidazol-5-yl)methanol.TFA] | 310 | 0.38 µM | 96 | 1.2 | – | – |
| COc1nc2ccc(C(O)(c3cnnn3C)c3cnc(C)n3C)cc2c(C#N)c1Cc1ccc(C(F)(F)F)cc1 (single isomer, unassigned) [Example 81B, 6-((1,2-Dimethyl-1H-imidazol-5-yl)(hydroxy)(1-methyl-1H-1,2,3-triazol-5-yl)methyl)-2-methoxy-3-(4-(trifluoromethyl)benzyl)quinoline-4-carbonitrile] | 0.05 | 0.002 µM and ~0.0002 µM | 104 | 0.0022 | – | – |
| Cn1cncc1C(O)(c1ccc(C(F)(F)F)nc1)c1ccc2nc(N3CCC3)c(Cc3ccc(C(F)(F)F)cc3)c(Cl)c2c1 (single isomer, unassigned) [Example 92B, (2-(Azetidin-1-yl)-4-chloro-3-(4-(trifluoromethyl)benzyl)quinolin-6-yl)(1-methyl-1H-imidazol-5-yl)(6-(trifluoromethyl)pyridin-3-yl)methanol] | 12 | 0.1 µM | 96 | – | 0.034 | – |
| COc1nc2ccc(C(N)(c3ccc(C)nc3C)c3cnnn3C)cc2c(Cl)c1Cc1ccc(C(F)(F)F)cc1 (single isomer, unassigned) [Example 87C, (4-Chloro-2-methoxy-3-(4-(trifluoromethyl)benzyl)quinolin-6-yl)(2,6-dimethylpyridin-3-yl)(1-methyl-1H-1,2,3-triazol-5-yl)methanamine] | 1.3 | 0.012 µM | – | 0.0045 | – | 99 |
| COc1nc2ccc(C(O)(c3ccc(C(F)(F)F)nc3)c3cncn3C)cc2c(C#N)c1Cc1ccc(-n2cccn2)cc1 (single isomer, unassigned) [Example 73B, 3-(4-(1H-Pyrazol-1-yl)benzyl)-6-(hydroxy(1-methyl-1H-imidazol-5-yl)(6-(trifluoromethyl)pyridin-3-yl)methyl)-2-methoxyquinoline-4-carbonitrile] | 4.5 | 0.046 µM | 97 | – | 0.02 | – |
| OC(c1ccc(Cl)cc1)(c1cccnc1)c1ccc2nc(Cl)c(Cc3ccc(-n4cccn4)cc3)c(Cl)c2c1 (stereo not shown) [Example 45, (3-(4-(1H-Pyrazol-1-yl)benzyl)-2,4-dichloroquinolin-6-yl)(4-chlorophenyl)(pyridin-3-yl)methanol] | 68 | 0.13 µM | 103 | 0.1 | – | – |
| COc1nc2ccc(C(O)(c3ccc(C#N)cc3)c3cncn3C)cc2c(C#N)c1Cc1ccc(C(F)(F)F)cc1 (single isomer, unassigned) [Example 96C, 6-((4-cyanophenyl)(hydroxy)(1-methyl-1H-imidazol-5-yl)methyl)-2-methoxy-3-(4-(trifluoromethyl)benzyl)quinoline-4-carbonitrile] | 2.2 | 0.018 µM | – | – | 0.0045 | 97 |
| COc1nc2ccc(C(O)(c3ccc(C(F)(F)F)nc3)c3cncn3C)cc2c(Cl)c1Cc1ccc(C(F)(F)F)nc1 (single isomer, unassigned) [Example 94C, (4-Chloro-2-methoxy-3-((6-(trifluoromethyl)pyridin-3-yl)methyl)quinolin-6-yl)(1-methyl-1H-imidazol-5-yl)(6-(trifluoromethyl)pyridin-3-yl)methanol] | 6.5 | 0.16 µM | – | – | 0.048 | 95 |
| COc1nc2ccc(C(O)(c3ccc(Cl)cc3)c3cncn3C)cc2c(OC)c1Cc1ccc(-n2cccn2)cc1 (stereo not shown) [Example 34, (3-(4-(1H-Pyrazol-1-yl)benzyl)-2,4-dimethoxyquinolin-6-yl)(4-chlorophenyl)(1-methyl-1H-imidazol-5-yl)methanol.TFA] | 250 | 0.46 µM | 101 | 1.8 | – | – |
| CCc1nc2ccc(C(O)(c3cnnn3C)C3CN(C(C)=O)C3)cc2c(Cl)c1Cc1ccc(C(F)(F)F)cc1 (single isomer, unassigned) [Example 90B, 1-(3-((4-Chloro-2-ethyl-3-(4-(trifluoromethyl)benzyl)quinolin-6-yl)(hydroxy)(1-methyl-1H-1,2,3-triazol-5-yl)methyl)azetidin-1-yl)ethanone] | 0.56 | ~0.004 µM | 98 | 0.012 | – | – |
| COc1nc2ccc(C(O)(c3cnnn3C)C3CN(C(C)=O)C3)cc2c(Cl)c1Cc1ccc(C(F)(F)F)cc1 (single isomer, unassigned) [Example 97C, 1-(3-((4-Chloro-2-methoxy-3-(4-(trifluoromethyl)benzyl)quinolin-6-yl)(hydroxy)(1-methyl-1H-1,2,3-triazol-5-yl)methyl)azetidin-1-yl)ethanone] | 0.64 | ~0.004 µM | – | – | 0.015 | 99 |
| OC(c1cccnc1)(c1cccc(F)c1)c1ccc2nc(Cl)c(Cc3ccc(-n4cccn4)cc3)c(Cl)c2c1 (stereo not shown) [Example 48, (3-(4-(1H-Pyrazol-1-yl)benzyl)-2,4-dichloroquinolin-6-yl)(3-fluorophenyl)(pyridin-3-yl)methanol] | 10 | 0.058 µM | 100 | 0.04 | – | – |
| COc1nc2ccc(C(O)(c3ccc(C#N)cc3)c3cncn3C)cc2c(C#N)c1Cc1ccc(C(F)(F)F)cc1 (single isomer, unassigned) [Example 96B, 6-((4-cyanophenyl)(hydroxy)(1-methyl-1H-imidazol-5-yl)methyl)-2-methoxy-3-(4-(trifluoromethyl)benzyl)quinoline-4-carbonitrile] | 48 | 0.16 µM | 97 | – | 0.05 | – |
| COc1nc2ccc(C(O)(c3ccc(C(F)(F)F)nc3)c3cncn3C)cc2c(Cl)c1Cc1cc2ccccc2s1 (single isomer, unassigned) [Example 37C, (3-(benzo[b]thiophen-2-ylmethyl)-4-chloro-2-methoxyquinolin-6-yl)(1-methyl-1H-imidazol-5-yl)(6-(trifluoromethyl)pyridin-3-yl)methanol] | 3.5 | 0.11 µM | – | – | 0.15 | 102 |
| COc1nc2c(C)cc(C(O)(c3ccc(C(F)(F)F)nc3)c3cncn3C)cc2c(Cl)c1Cc1ccc(-n2cccn2)cc1 (single isomer, unassigned) [Example 29C, (3-(4-(1H-pyrazol-1-yl)benzyl)-4-chloro-2-methoxy-8-methylquinolin-6-yl)(1-methyl-1H-imidazol-5-yl)(6-(trifluoromethyl)pyridin-3-yl)methanol] | 4.9 | 0.081 µM | – | – | 0.09 | 97 |
